Patent US20200369626A1 (Washington University, priority 2019, published 2020)
Several values for one entry are separate records, joined by “and”; a condition that tells them apart may be missing. Equal values may be shown once. Blank lines part the entries; values can stand above or below the compound they belong to.

What was measured:
[1] = biological target: T1, sphingosine-1-phosphate receptor 2 in kidney sections (Rattus norvegicus, UniProt P47752); test: in vitro autoradiography of [^125I]34 on rat kidney sections; assay type: binding, Sprague Dawley rats
T1 construct: from tissue; host or cells: kidney of male Sprague Dawley rats (control and STZ-induced diabetic)
Method: To check that changes of S1PR2 expression can be detected using [^125I]34 in the STZ induced diabetes rats, in vitro autoradiography studies of [^125]34 were performed.
Male Sprague Dawley (SD) rats (8 weeks old,) received streptozotocin (STZ) via tail vein injections at a dose of 55 mg/kg in 50 mM sodium citrate buffer 12 weeks prior to euthanasia and tissue harvesting. Body weight and blood glucose levels were measured weekly in control and treated animals, where elevated blood glucose was indicative of chronic diabetes (see FIG. 5a). After 12 weeks, the rats were euthanized and one kidney was removed, snap-frozen, and sectioned (14 microns) with a Leica cryostat.
The autoradiography experiment was performed by incubating frozen cross sections of rat kidney tissue and 1.85 KBq/slide of [^125I]34 in 500 μL of binding buffer (50 mM HEPES-Na pH 7.5, 5 mM MgCl2, and 1 mM CaCl2, 0.5% fatty acid-free bovine serum albumin) to check the uptake of the radioactivity. Blocking studies of radiotracer were performed by incubating the above solution with 10 μM of JTE-013, a S1PR2 specific inhibitor. After incubation for 60 minutes at room temperature, the kidney sections were washed 2 minutes each using the following buffers sequentially: 1×TBST, 15% ethanol in 1×TBST, 30% ethanol in 1×TBST, 1×TBST (1×TBST buffer: 20 mM of Tris, 150 mM of NaCl, 0.1% of Tween 20). Then, the section slides were placed into a cassette and exposed to a phosphor sensor sheet for 24 hours. Autoradiography signal was visualized by phosphor-imaging of FLA7000. Autoradiography signal on the renal tissues (cortex and medulla, not including the renal papilla) was measured and quantified with Multi Gouge program. The data was background-corrected and expressed as photo-stimulated luminescence signals per square millimeter (PSL/mm^2) as shown in FIG. 5B. For statistical comparison, the student t-test (unpaired) was applied using MS Excel and p<0.05 was considered statistically significant (see FIG. 5C.)

[2] = biological target: T2, Human recombinant sphingosine-1-phosphate receptor 2 (Homo sapiens, UniProt O95136); test: biochemical; assay type: binding
Method: Then, a 50 μL aliquot of increasing concentrations of [^125I]34 (0.2, 0.5, 1.0, 2.0, 4.0, 6.0, 8.0, 10.0, 16.0, and 20.0 nM) was added to each well; each concentration of [^125I]34 was calculated from the radioactivity and specific activity. […] The mixture was incubated at room temperature for 1 h on a shaker and then transferred onto 96-well glass fiber filtration plates. The unbound activity was filtered and rapidly washed away using 200 μL/well of ice-cold assay buffer for 5 times. After drying under the vacuum, the filter bound radionuclide was measured by a Beckman 8000 automated gamma counter. Data analysis was accomplished using GraphPad Prism (GraphPadSoftware, Inc., San Diego, Calif.). The specific binding was calculated by subtracting the non-specific binding from the total binding. The binding assay data were curve-fit to a one-site binding equation to generate the dissociation constant (Kd) of the [^125I]34.

[3] = ex vivo biodistribution study of [^125I]34 in Wistar rats
Method: A pilot biodistribution study was carried out in a small number of rats at early time points post-injection in order to minimize the amount of mixed (radioactive and biological) waste generated by in vivo work. […] Control and streptozotocin-treated Wistar rats were used 10 days after treatment for the preliminary pilot acute ex vivo biodistribution study described below.
As described above, adult male Wistar rats from Charles River were used for a pilot study to evaluate the distribution of [^125I]34 in normal rats at 5 and 30 min post injection and in acute streptozotocin-induced diabetic rats 30 min post-injection (n=4 for each group). The acute streptozotocin-induced diabetic rats were treated 10 days before the study as described above. […] The concentrated solution of [^125I]34 was diluted to ˜0.037 MBq/100 μL which was formulated for injection in 10% ethanol in 5% polyoxyethylated 12-hydroxystearic acid (Kolliphor® HS 15, Millipore Sigma, Billerica, Mass.) and normal saline solution, in order to ensure that the radioactivity was solubilized. Rats were injected via the lateral tail vein under 2-3% isoflurane/oxygen anesthesia, then allowed to recover until euthanized under isoflurane/oxygen anesthesia at the appropriate time point post-injection. Tissues including blood, heart, lung, liver, kidney, muscle, fat, pancreas, spleen, kidney, liver, thyroid, thymus, brain, and small intestines were collected, weighed, and counted in a Beckman Gamma 8000 counter, and counts were corrected for background and decay corrected. Tracer uptake in tissues and organs was calculated as percent injected dose per gram of tissue (% ID/g).

[4] = biological target: T3, S1PR2 (Homo sapiens, UniProt O95136); test: competitive [^32P]S1P binding assay on cell membranes, S1PR2; conditions: read-out: [^32P]S1P competition assay IC50; S1PR2, radioligand [^32P]S1P
T3 construct: purchased
Method: The test compounds were dissolved in DMSO and diluted into test samples with increasing concentrations with assay buffer. Commercial cell membranes expressing recombinant human S1PR were diluted with assay buffer to make a 20-40 μg/mL of solution. […] The plate was incubated for 60 min at room temperature with shaking and terminated by collecting the membranes onto 96-well glass fiber (GF/B) filtration plates (Millipore, Billerica, Mass.). Each filter was washed with 200 μL of assay buffer for a total of five washes. […] The IC50 values were fitted from GraphPad Prism 6 using one site Nonlinear Regression.

[5] = biological target: T2, Human recombinant sphingosine-1-phosphate receptor 2; test: competitive binding assay using [^125I]34 as radioligand; conditions: S1PR2, radioligand [^125I]34; read-out: [^125I]34 competition assay IC50
Method: Then, 50 μL of different concentrations (0.01, 0.05, 0.1, 0.5, 1.0, 5.0, 10.0, 50.0, 100, 500, 1000 nM) of each ligand and 50 μL of [^125]34 (6.0 nM) was added to each well. The mixture was incubated for 1 h on a shaker at room temperature and then transferred onto a 96-well glass fiber filtration plates. The unbound activity was filtered and rapidly washed using ice-cold assay buffer (5×200 μL/well). After drying under reduced pressure, the filter bound radionuclide was measured by a Beckman 8000 automated gamma counter. The binding potency (IC50) was calculated using GraphPad Prism.

T1 sequence (P47752 whole entry): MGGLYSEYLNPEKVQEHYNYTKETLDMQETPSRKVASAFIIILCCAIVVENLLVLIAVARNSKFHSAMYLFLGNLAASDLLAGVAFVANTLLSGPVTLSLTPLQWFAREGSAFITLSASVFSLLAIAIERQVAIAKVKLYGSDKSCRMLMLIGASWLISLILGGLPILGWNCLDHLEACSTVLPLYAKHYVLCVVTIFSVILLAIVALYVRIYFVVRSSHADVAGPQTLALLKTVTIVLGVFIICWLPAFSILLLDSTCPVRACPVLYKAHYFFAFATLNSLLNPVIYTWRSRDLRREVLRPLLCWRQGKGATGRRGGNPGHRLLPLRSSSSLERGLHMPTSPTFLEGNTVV
T2 sequence (O95136 whole entry): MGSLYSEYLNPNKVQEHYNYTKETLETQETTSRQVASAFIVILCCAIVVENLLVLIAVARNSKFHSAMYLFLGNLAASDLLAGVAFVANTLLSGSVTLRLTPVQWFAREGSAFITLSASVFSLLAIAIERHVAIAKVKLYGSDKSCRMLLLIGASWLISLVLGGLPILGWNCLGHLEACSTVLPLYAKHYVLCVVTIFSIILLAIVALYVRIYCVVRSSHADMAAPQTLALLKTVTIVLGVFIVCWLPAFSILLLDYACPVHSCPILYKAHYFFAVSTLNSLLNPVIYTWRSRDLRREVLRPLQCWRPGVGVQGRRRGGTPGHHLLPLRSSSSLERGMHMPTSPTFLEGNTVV
T3 sequence (O95136 whole entry): as above

SMILES: COc1ccc(NC(=O)Cn2c(=O)c3ccccc3n(CC(=O)Nc3cc([125I])c(OC)cc3OC)c2=O)cc1 [[^125I]34]
- blocking of binding to kidney tissue ([1]; 10 μM of JTE-013, both groups): could be blocked
- kidney radioactivity (autoradiography signal) ([1]; chronic diabetic (STZ) rats, n=5): 103.5 PSL/mm^2
- increase of binding to kidney of diabetic rats compared to control rats ([1]; chronic diabetic vs control): 44%
- kidney radioactivity (autoradiography signal) ([1]; control rats, n=4): 72.0 PSL/mm^2
- Kd [2]: 4.31 ± 0.39 nM
- Uptake Blood ([3]; 5 min control): 0.19 % ID/g and 0.19 ± 0.05 % ID/g
- Uptake Blood ([3]; 30 min acute diabetic): 0.08 ± 0.05 % ID/g
- Uptake Blood ([3]; 30 min control): 0.08 ± 0.02 % ID/g
- Uptake Brain ([3]; 5 min control): 0.01 % ID/g and 0.01 ± 0.00 % ID/g
- Uptake Brain ([3]; 30 min acute diabetic): 0.01 ± 0.00 % ID/g
- Uptake Brain ([3]; 30 min control): 0.01 ± 0.00 % ID/g
- Uptake Fat ([3]; 5 min control): 0.07 ± 0.02 % ID/g
- Uptake Fat ([3]; 30 min acute diabetic): 0.11 ± 0.04 % ID/g
- Uptake Fat ([3]; 30 min control): 0.09 ± 0.01 % ID/g
- Uptake Heart ([3]; 5 min control): 0.39 % ID/g and 0.39 ± .08 % ID/g
- Uptake Heart ([3]; 30 min acute diabetic): 0.12 ± 0.06 % ID/g
- Uptake Heart ([3]; 30 min control): 0.14 ± 0.02 % ID/g
- Uptake Kidney ([3]; 5 min control): 0.58 % ID/g and 0.58 ± 0.02 % ID/g
- Uptake Kidney ([3]; 30 min acute diabetic): 0.15 ± 0.06 % ID/g
- Uptake Kidney ([3]; 30 min control): 0.15 ± 0.02 % ID/g
- Uptake Liver ([3]; 5 min control): 2.20 % ID/g and 2.20 ± 0.32 % ID/g
- Uptake Liver ([3]; 30 min acute diabetic): 0.36 ± 0.14 % ID/g
- Uptake Liver ([3]; 30 min control): 0.36 ± 0.07 % ID/g
- Uptake Lung ([3]; 5 min control): 0.64 % ID/g and 0.64 ± 0.01 % ID/g
- Uptake Lung ([3]; 30 min acute diabetic): 0.20 ± 0.09 % ID/g
- Uptake Lung ([3]; 30 min control): 0.22 ± 0.04 % ID/g
- Uptake Muscle ([3]; 5 min control): 0.12 ± 0.01 % ID/g
- Uptake Muscle ([3]; 30 min acute diabetic): 0.06 ± 0.02 % ID/g
- Uptake Muscle ([3]; 30 min control): 0.08 ± 0.01 % ID/g
- Uptake Pancreas ([3]; 5 min control): 0.40 ± 0.04 % ID/g
- Uptake Pancreas ([3]; 30 min acute diabetic): 0.12 ± 0.04 % ID/g
- Uptake Pancreas ([3]; 30 min control): 0.14 ± 0.01 % ID/g
- Uptake Small intestines ([3]; 5 min control): 1.09 ± 0.23 % ID/g
- Uptake Small intestines ([3]; 30 min acute diabetic): 2.59 ± 0.58 % ID/g
- Uptake Small intestines ([3]; 30 min control): 5.32 ± 0.27 % ID/g
- Uptake Spleen ([3]; 5 min control): 0.29 ± 0.06 % ID/g
- Uptake Spleen ([3]; 30 min acute diabetic): 0.05 ± 0.02 % ID/g
- Uptake Spleen ([3]; 30 min control): 0.06 ± 0.01 % ID/g
- Uptake Thymus ([3]; 5 min control): 0.10 ± 0.01 % ID/g
- Uptake Thymus ([3]; 30 min acute diabetic): 0.08 ± 0.03 % ID/g
- Uptake Thymus ([3]; 30 min control): 0.10 ± 0.02 % ID/g
- Uptake Thyroid ([3]; 5 min control): 0.32 ± 0.11 % ID/g
- Uptake Thyroid ([3]; 30 min acute diabetic): 0.25 ± 0.06 % ID/g
- Uptake Thyroid ([3]; 30 min control): 0.53 ± 0.09 % ID/g
- in vivo metabolic stability ([3]; inferred from low activity in the thyroid): metabolically stable
- crossing of the blood brain barrier ([3]; inferred from very low brain uptake in rats): does not cross the blood brain barrier

- IC50 [4]: 2.8 nM
- IC50 [5]: 4.4 ± 0.2 nM
SMILES: COc1ccc(NC(=O)Cn2c(=O)c3ccccc3n(CC(=O)Nc3cc(I)c(OC)cc3OC)c2=O)cc1 [Compound 34, N-(5-iodo-2,4-dimethoxyphenyl)-2-(3-(2-((4-methoxyphenyl)amino)-2-oxoethyl)-2,4-dioxo-3,4-dihydroquinazolin-1(2H)-yl)acetamide]
